Measured values reported in PubChem BioAssay (NCI).
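Where inhibition never reached the appropriate level, the endpoint shown equals the highest concentration tested. Otherwise, values were interpolated linearly from a five-concentration, 48-hour dose response in 96-well plates. TGI: total growth inhibition.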

Legend:
Assay in all cases: inhibition of tumour cell growth, NCI panel, 48 h
786-0 renal = tested on: 786-0 renal
A498 renal = tested on: A498 renal
A549 NSCLC = tested on: A549 NSCLC
ACHN renal = tested on: ACHN renal
BT-549 breast = tested on: BT-549 breast
CAKI-1 renal = tested on: CAKI-1 renal
CCRF-CEM leukemia = tested on: CCRF-CEM leukemia
COLO 205 colon = tested on: COLO 205 colon
DU-145 prostate = tested on: DU-145 prostate
EKVX NSCLC = tested on: EKVX NSCLC
HCC-2998 colon = tested on: HCC-2998 colon
HCT-116 colon = tested on: HCT-116 colon
HCT-15 colon = tested on: HCT-15 colon
HL-60(TB) leukemia = tested on: HL-60(TB) leukemia
HOP-62 NSCLC = tested on: HOP-62 NSCLC
HOP-92 NSCLC = tested on: HOP-92 NSCLC
HS 578T breast = tested on: HS 578T breast
HT29 colon = tested on: HT29 colon
IGROV1 ovarian = tested on: IGROV1 ovarian
KM12 colon = tested on: KM12 colon
LOX IMVI melanoma = tested on: LOX IMVI melanoma
M14 melanoma = tested on: M14 melanoma
MALME-3M melanoma = tested on: MALME-3M melanoma
MCF7 breast = tested on: MCF7 breast
MDA-MB-231 breast = tested on: MDA-MB-231 breast
MDA-MB-435 = tested on: MDA-MB-435
MDA-N = tested on: MDA-N
MOLT-4 leukemia = tested on: MOLT-4 leukemia
NCI-H226 lung = tested on: NCI-H226 lung
NCI-H23 lung = tested on: NCI-H23 lung
NCI-H460 lung = tested on: NCI-H460 lung
NCI-H522 lung = tested on: NCI-H522 lung
NCI/ADR-RES ovarian = tested on: NCI/ADR-RES ovarian
OVCAR-3 ovarian = tested on: OVCAR-3 ovarian
OVCAR-4 ovarian = tested on: OVCAR-4 ovarian
OVCAR-5 ovarian = tested on: OVCAR-5 ovarian
OVCAR-8 ovarian = tested on: OVCAR-8 ovarian
PC-3 prostate = tested on: PC-3 prostate
RPMI-8226 leukemia = tested on: RPMI-8226 leukemia
RXF 393 renal = tested on: RXF 393 renal
SF-268 CNS = tested on: SF-268 CNS
SF-295 CNS = tested on: SF-295 CNS
SF-539 CNS = tested on: SF-539 CNS
SK-MEL-2 melanoma = tested on: SK-MEL-2 melanoma
SK-MEL-28 melanoma = tested on: SK-MEL-28 melanoma
SK-MEL-5 melanoma = tested on: SK-MEL-5 melanoma
SK-OV-3 ovarian = tested on: SK-OV-3 ovarian
SN12C renal = tested on: SN12C renal
SNB-19 CNS = tested on: SNB-19 CNS
SNB-75 CNS = tested on: SNB-75 CNS
SR leukemia = tested on: SR leukemia
SW-620 colon = tested on: SW-620 colon
T-47D breast = tested on: T-47D breast
TK-10 renal = tested on: TK-10 renal
U251 CNS = tested on: U251 CNS
UACC-257 melanoma = tested on: UACC-257 melanoma
UACC-62 melanoma = tested on: UACC-62 melanoma
UO-31 renal = tested on: UO-31 renal
K-562 leukemia = tested on: K-562 leukemia

For C/C(=N\NC(N)=S)C(CN1CCCCC1)C(C1=C(O)c2ccccc2OC1)c1ccccc1 (stereo not drawn), the TGI (786-0 renal) was > 100 µM, the TGI (A498 renal) was > 100 µM and the TGI (A549 NSCLC) was > 100 µM. For the same molecule, the TGI (ACHN renal) was > 100 µM, the TGI (BT-549 breast) was > 100 µM and the TGI (CAKI-1 renal) was > 100 µM. For the same molecule, the TGI (CCRF-CEM leukemia) was > 100 µM, the TGI (COLO 205 colon) was > 100 µM and the TGI (DU-145 prostate) was > 100 µM. For the same molecule, the TGI (EKVX NSCLC) was > 100 µM, the TGI (HCC-2998 colon) was > 100 µM and the TGI (HCT-116 colon) was > 100 µM. The TGI (HCT-15 colon) was > 100 µM, the TGI (HL-60(TB) leukemia) was 88.4 µM and the TGI (HOP-62 NSCLC) was > 100 µM. The TGI (HOP-92 NSCLC) was > 100 µM, the TGI (HS 578T breast) was > 100 µM and the TGI (HT29 colon) was > 100 µM. The TGI (IGROV1 ovarian) was > 100 µM, the TGI (KM12 colon) was > 100 µM and the TGI (LOX IMVI melanoma) was > 100 µM. The TGI (M14 melanoma) was > 100 µM, the TGI (MALME-3M melanoma) was > 100 µM and the TGI (MCF7 breast) was > 100 µM. The TGI (MDA-MB-231 breast) was > 100 µM, the TGI (MDA-MB-435) was > 100 µM and the TGI (MDA-N) was > 100 µM. For the same molecule, the TGI (MOLT-4 leukemia) was > 100 µM, the TGI (NCI-H226 lung) was > 100 µM and the TGI (NCI-H23 lung) was > 100 µM. For the same molecule, the TGI (NCI-H460 lung) was > 100 µM, the TGI (NCI-H522 lung) was > 100 µM and the TGI (NCI/ADR-RES ovarian) was > 100 µM. For the same molecule, the TGI (OVCAR-3 ovarian) was > 100 µM, the TGI (OVCAR-4 ovarian) was > 100 µM and the TGI (OVCAR-5 ovarian) was > 100 µM. For the same molecule, the TGI (OVCAR-8 ovarian) was > 100 µM, the TGI (PC-3 prostate) was > 100 µM and the TGI (RPMI-8226 leukemia) was 73.6 µM. For the same molecule, the TGI (RXF 393 renal) was > 100 µM, the TGI (SF-268 CNS) was > 100 µM and the TGI (SF-295 CNS) was > 100 µM. For the same molecule, the TGI (SF-539 CNS) was > 100 µM, the TGI (SK-MEL-2 melanoma) was > 100 µM and the TGI (SK-MEL-28 melanoma) was > 100 µM. For the same molecule, the TGI (SK-MEL-5 melanoma) was > 100 µM, the TGI (SK-OV-3 ovarian) was > 100 µM and the TGI (SN12C renal) was > 100 µM. The TGI (SNB-19 CNS) was > 100 µM, the TGI (SNB-75 CNS) was > 100 µM and the TGI (SR leukemia) was > 100 µM. For the same molecule, the TGI (SW-620 colon) was > 100 µM, the TGI (T-47D breast) was > 100 µM and the TGI (TK-10 renal) was > 100 µM. The TGI (U251 CNS) was > 100 µM, the TGI (UACC-257 melanoma) was > 100 µM and the TGI (UACC-62 melanoma) was > 100 µM. For the same molecule, the TGI (UO-31 renal) was > 100 µM.
With CNC(=O)OCC1=C(COC(=O)NC)CN(c2ccc(OC)cc2)C1 the TGI (786-0 renal) was > 100 µM, the TGI (A498 renal) was 3.9 µM and the TGI (A549 NSCLC) was > 100 µM. The TGI (ACHN renal) was > 100 µM, the TGI (BT-549 breast) was > 100 µM and the TGI (CCRF-CEM leukemia) was > 100 µM. For the same molecule, the TGI (COLO 205 colon) was > 100 µM, the TGI (DU-145 prostate) was > 100 µM and the TGI (EKVX NSCLC) was > 100 µM. The TGI (HCC-2998 colon) was > 100 µM, the TGI (HCT-116 colon) was > 100 µM and the TGI (HCT-15 colon) was > 100 µM. For the same molecule, the TGI (HL-60(TB) leukemia) was > 100 µM, the TGI (HOP-62 NSCLC) was > 100 µM and the TGI (HOP-92 NSCLC) was > 100 µM. The TGI (HS 578T breast) was > 100 µM, the TGI (HT29 colon) was > 100 µM and the TGI (IGROV1 ovarian) was > 100 µM. The TGI (K-562 leukemia) was > 100 µM, the TGI (KM12 colon) was > 100 µM and the TGI (LOX IMVI melanoma) was > 100 µM. The TGI (M14 melanoma) was > 100 µM, the TGI (MALME-3M melanoma) was > 100 µM and the TGI (MCF7 breast) was > 100 µM. The TGI (MDA-MB-231 breast) was > 100 µM, the TGI (MDA-MB-435) was > 100 µM and the TGI (MDA-N) was > 100 µM. The TGI (MOLT-4 leukemia) was > 100 µM, the TGI (NCI-H226 lung) was 41.1 µM and the TGI (NCI-H23 lung) was > 100 µM. The TGI (NCI-H460 lung) was > 100 µM, the TGI (NCI/ADR-RES ovarian) was > 100 µM and the TGI (OVCAR-3 ovarian) was > 100 µM. The TGI (OVCAR-4 ovarian) was > 100 µM, the TGI (OVCAR-5 ovarian) was > 100 µM and the TGI (OVCAR-8 ovarian) was > 100 µM. For the same molecule, the TGI (PC-3 prostate) was > 100 µM, the TGI (RPMI-8226 leukemia) was > 100 µM and the TGI (RXF 393 renal) was > 100 µM. For the same molecule, the TGI (SF-268 CNS) was > 100 µM, the TGI (SF-295 CNS) was > 100 µM and the TGI (SF-539 CNS) was > 100 µM. For the same molecule, the TGI (SK-MEL-2 melanoma) was > 100 µM, the TGI (SK-MEL-28 melanoma) was > 100 µM and the TGI (SK-MEL-5 melanoma) was > 100 µM. The TGI (SK-OV-3 ovarian) was > 100 µM, the TGI (SN12C renal) was > 100 µM and the TGI (SNB-19 CNS) was > 100 µM. The TGI (SNB-75 CNS) was > 100 µM, the TGI (SR leukemia) was > 100 µM and the TGI (SW-620 colon) was > 100 µM. For the same molecule, the TGI (T-47D breast) was > 100 µM, the TGI (TK-10 renal) was > 100 µM and the TGI (U251 CNS) was > 100 µM. For the same molecule, the TGI (UACC-257 melanoma) was > 100 µM, the TGI (UACC-62 melanoma) was > 100 µM and the TGI (UO-31 renal) was > 100 µM.
Cc1cc(=O)[nH]c(Sc2ccc([N+](=O)[O-])cc2[N+](=O)[O-])n1 was tested, and the TGI (786-0 renal) was 32.9 µM, the TGI (A498 renal) was > 100 µM and the TGI (A549 NSCLC) was 40.2 µM. It also gave a TGI (ACHN renal) of 38.4 µM, a TGI (BT-549 breast) of 26.8 µM and a TGI (CAKI-1 renal) of 28.9 µM. It also gave a TGI (CCRF-CEM leukemia) of 23.1 µM, a TGI (COLO 205 colon) of 15.7 µM and a TGI (DU-145 prostate) of 43.5 µM. The TGI (EKVX NSCLC) was > 57.2 µM, the TGI (HCC-2998 colon) was 30.6 µM and the TGI (HCT-116 colon) was > 34.6 µM. The TGI (HCT-15 colon) was 28.4 µM, the TGI (HL-60(TB) leukemia) was 11.3 µM and the TGI (HOP-62 NSCLC) was > 58.5 µM. The TGI (HOP-92 NSCLC) was 19.2 µM, the TGI (HS 578T breast) was > 63.4 µM and the TGI (HT29 colon) was 19.1 µM. For the same molecule, the TGI (IGROV1 ovarian) was > 100 µM, the TGI (K-562 leukemia) was > 100 µM and the TGI (KM12 colon) was > 67.4 µM. The TGI (LOX IMVI melanoma) was 8.67 µM, the TGI (M14 melanoma) was 32.3 µM and the TGI (MALME-3M melanoma) was 35.7 µM. The TGI (MCF7 breast) was 64.2 µM, the TGI (MDA-MB-231 breast) was 46.9 µM and the TGI (MDA-MB-435) was > 55.1 µM. For the same molecule, the TGI (MDA-N) was 40.8 µM, the TGI (MOLT-4 leukemia) was > 100 µM and the TGI (NCI-H226 lung) was 40.9 µM. For the same molecule, the TGI (NCI-H23 lung) was 41.1 µM, the TGI (NCI-H460 lung) was > 59.5 µM and the TGI (NCI-H522 lung) was 22.9 µM. For the same molecule, the TGI (NCI/ADR-RES ovarian) was > 66.3 µM, the TGI (OVCAR-3 ovarian) was 31.2 µM and the TGI (OVCAR-4 ovarian) was > 56.1 µM. For the same molecule, the TGI (OVCAR-5 ovarian) was 35.2 µM, the TGI (OVCAR-8 ovarian) was 30 µM and the TGI (PC-3 prostate) was 49.7 µM. The TGI (RPMI-8226 leukemia) was 18.7 µM, the TGI (RXF 393 renal) was 26.1 µM and the TGI (SF-268 CNS) was > 54.3 µM. For the same molecule, the TGI (SF-295 CNS) was > 76.4 µM, the TGI (SK-MEL-2 melanoma) was 46.4 µM and the TGI (SK-MEL-28 melanoma) was 38.4 µM. The TGI (SK-MEL-5 melanoma) was 31.3 µM, the TGI (SK-OV-3 ovarian) was > 100 µM and the TGI (SN12C renal) was 28.3 µM. For the same molecule, the TGI (SNB-19 CNS) was > 66.8 µM, the TGI (SNB-75 CNS) was 39.9 µM and the TGI (SR leukemia) was > 100 µM. It also gave a TGI (SW-620 colon) of 18.1 µM, a TGI (T-47D breast) of 43 µM and a TGI (TK-10 renal) of 29.6 µM. It also gave a TGI (U251 CNS) of 46.3 µM, a TGI (UACC-257 melanoma) of 44.7 µM and a TGI (UACC-62 melanoma) of 41.4 µM. The TGI (UO-31 renal) was 37.1 µM.
